Measured values as given in patent US8187882B2, “Multiple shoot proliferation and regeneration system for plants” (Monsanto Technology LLC, priority 2001, dated 2012).
Structures can show the parent of a compound that is named as a salt.

What was measured:
[1] = test system: DP50 cotton zygotic embryo explants; experiment: Relative activity of different formulations of dikegulac on DP50 cotton zygotic embryo explants; assay type: cell-based; conditions: cv DP50
Description: Any common plant tissue culture media can be used, including, but not limited to, modified LP medium, DKW medium, GD1 medium, MS/B5 medium, or WPM medium. Embryo axes should be placed apical end up and basal end into the medium so that the radicle is beneath the medium surface. The explants are cultured axenically at approximately 25-28° C. under fluorescent lighting at about 10-50 μE PAR for a 16-hour photoperiod. Typically it takes 5-10 weeks for multiple shoots in cotton to develop to a useful size. Table 4 is a comparison of many different formulations of dikegulac.

cotton embryos = experiment: Multiple shoot formation from cotton embryos cultured on varying levels of dikegulac with 1 mg/L IAA and 1 mg/L BAP; assay type: cell-based
Description: Tissue culture: Embryo explants are cultured in media in a suitable culture vessel containing 500 mg/L sodium dikegulac (2,3:4,6-diisopropylidene-2-keto-1-gulonic acid), 1 mg/L IAA (indole-3-acetic acid), and 1 mg/L BA (N-6-benzyladenine) (herein after referred to as DIB media). Any common plant tissue culture media can be used, including, but not limited to, modified LP medium, DKW medium, GD1 medium, MS/B5 medium, or WPM medium. Embryo axes should be placed apical end up and basal end into the medium so that the radicle is beneath the medium surface. The explants are cultured axenically at approximately 25-28° C. under fluorescent lighting at about 10-50 μE PAR for a 16-hour photoperiod. Typically it takes 5-10 weeks for multiple shoots in cotton to develop to a useful size. Experiments were done to determine if the form of the dikegulac is important and to determine a minimum optimum level of dikegulac needed for multiple shoot formation. […] What is not captured in the numerical data in Table 3 is the overall phenotypic response of the cultures. The explants cultured on the MS/B5 medium contained a lot of callus tissue at the base and the cultures were yellowing. The cultures on GD1 contained only a minimal amount of callus but the yellowing of the regenerating tissues was present.

cotton explants = experiment: Early experiments with dikegulac sodium salt in the culture medium for cotton; assay type: cell-based; conditions: 1000 mg/L incorporated into the culture medium
Description: Forms of dikegulac: Dikegulac comes in several forms, for example a sodium salt, Atrimmec™, and free add. Early experiments were done using 1000 mg/L of the sodium salt incorporated into the culture medium for cotton. […] Later tests reduced this to 500 mg/L for ease of shoot development. Sodium dikegulac (500 mg/L) was tested in all combinations with BAP (0, 1, and 5 mg/L) and IAA (0, 1, and 5 mg/L). For US upland cotton varieties, 500 mg/L dikegulac, 1 mg/L IAA and 1 mg/L BA is a particularly useful combination. Zeatin riboside (ZR) can be substituted for BA with good results. The cytokinin component can also be omitted with good results.

cotton plants = experiment: Morphology and fertility of cotton plants grown from elongated, rooted shoots produced with dikegulac; assay type: in vivo
Text: Elongation and rooting After multiple shoots are produced, individual shoots, epicotyls, or entire shoot clump developed on the explant are excised and subcultured on the basal medium used above (without the growth regulators, or with exogenous auxin) under the same temperature and light conditions. Table 4 is a comparison of many different formulations of dikegulac.

[2] = Study 1, 500 mg/L, liquid DIB medium
[3] = Study 1, 500 mg/L, solid DIB medium
[4] = MS/B5 medium, dikegulac 500 mg/L
[5] = MS/B5 medium, dikegulac 200 mg/L
[6] = MS/B5 medium, dikegulac 300 mg/L
[7] = Study 2, 500 mg/L, solid DIB medium

SMILES | Extra buds per viable explant [1, 2] | No. non-viable Explants [1, 2] | Percent Responding [1, 2] | Extra buds per viable explant [1, 3] | No. non-viable Explants [1, 3] | Percent Responding [1, 3] | # Responding, multiple shoots (cotton embryos; GD1 medium, dikegulac 500 mg/L) | # Responding, multiple shoots (cotton embryos; [4]) | Fertility of plants developed from elongated, rooted shoots (cotton plants) | Morphology of plants developed from elongated, rooted shoots (cotton plants) | Extra buds per viable explant [1, 7] | No. non-viable Explants [1, 7] | Percent Responding [1, 7] | other results
CC1(C)OC[C@@H]2O[C@@]3(C(=O)[O-])OC(C)(C)O[C@H]3[C@@H]2O1.[Na+] [RJK-D] | 3.3 | 11 | 82% | – | – | – | – | – | – | – | – | – | – | –
CC1(C)OC[C@@H]2O[C@@]3(C(=O)[O-])OC(C)(C)O[C@H]3[C@@H]2O1.[Na+] [Q2161] | 3.5 | 20 | 64% | 2.9 | 9 | 85% | – | – | – | – | – | – | – | –
CC1(C)OC[C@@H]2O[C@@]3(C(=O)[O-])OC(C)(C)O[C@H]3[C@@H]2O1.[Na+] [RJK-H] | – | – | – | 3.7 | 9 | 85% | – | – | – | – | – | – | – | Extra buds per viable explant ([1]; Study 3, 400): 1.9; No. non-viable Explants ([1]; Study 3, 400): 20; Percent Responding ([1]; Study 3, 400): 75%; Extra buds per viable explant ([1]; Study 3, 500): 3.0; No. non-viable Explants ([1]; Study 3, 500): 17; Percent Responding ([1]; Study 3, 500): 79%; Extra buds per viable explant ([1]; Study 3, 600): 3.4; No. non-viable Explants ([1]; Study 3, 600): 24; Percent Responding ([1]; Study 3, 600): 70%; Extra buds per viable explant ([1]; Study 3, 700): 3.1; No. non-viable Explants ([1]; Study 3, 700): 33; Percent Responding ([1]; Study 3, 700): 59%
CC1(C)OC[C@@H]2O[C@@]3(C(=O)O)OC(C)(C)O[C@H]3[C@@H]2O1 [dikegulac (sodium salt), 2,3:4,6-diisopropylidene-2-keto-1-gulonic acid] | – | – | – | – | – | – | 35/50 | 39/50 | 100% | morphologically normal | – | – | – | Response of cotton explants (cotton explants): swelling, enlarged meristems, and adventitious-like leaf primordia, but the explants did not easily grow out
CC1(C)OC[C@@H]2O[C@@]3(C(=O)O)OC(C)(C)O[C@H]3[C@@H]2O1 [dikegulac (acid form), 2,3:4,6-di-o-isopropylidene-2-keto-L-gulonic add] | 3.4 | 16 | 67% | 3.8 | 8 | 87% | 40/50 | 38/50 | 100% | morphologically normal | 4.2 | 1 | 96% | # Responding, single shoots (cotton embryos; GD1 medium, dikegulac 100 mg/L): 39/50; # Responding, multiple shoots (cotton embryos; GD1 medium, dikegulac 200 mg/L): 21/50; # Responding, single shoots (cotton embryos; GD1 medium, dikegulac 200 mg/L): 22/50; # Responding, multiple shoots (cotton embryos; GD1 medium, dikegulac 300 mg/L): 33/50; # Responding, single shoots (cotton embryos; GD1 medium, dikegulac 300 mg/L): 10/50; # Responding, multiple shoots (cotton embryos; GD1 medium, dikegulac 400 mg/L): 37/50; # Responding, single shoots (cotton embryos; MS/B5 medium, dikegulac 100 mg/L): 36/50; # Responding, multiple shoots (cotton embryos; [5]): 38/50; # Responding, single shoots (cotton embryos; [5]): 9/50; # Responding, multiple shoots (cotton embryos; [6]): 41/50; # Responding, single shoots (cotton embryos; [6]): 3/50; # Responding, multiple shoots (cotton embryos; MS/B5 medium, dikegulac 400 mg/L): 40/50
CC1(C)OC[C@@H]2O[C@@]3(C(=O)[O-])OC(C)(C)O[C@H]3[C@@H]2O1.[Na+] [D4043] | 3.9 | 16 | 84% | 3.4 | 5 | 92% | – | – | – | – | 4.1 | 8 | 83% | –
